Data reported in patent publication US10336762B2 (priority 2017, dated 2019).

Columns and labels:
TNFα = assay: cells; type: cell-based, human; conditions: Homo sapiens, Monocyte, LPS-stimulated human monocytes, TNFα content; read-out: EC50 TNF
IRAK4 enzyme = IRAK4 enzyme (Homo sapiens (Human), UniProt Q9NWZ3); assay: biochemical; type: biochemical; conditions: IRAK4 enzyme, TR-FRET (HTRF), 500 μM ATP
Chain of IRAK4 enzyme (Q9NWZ3 whole entry): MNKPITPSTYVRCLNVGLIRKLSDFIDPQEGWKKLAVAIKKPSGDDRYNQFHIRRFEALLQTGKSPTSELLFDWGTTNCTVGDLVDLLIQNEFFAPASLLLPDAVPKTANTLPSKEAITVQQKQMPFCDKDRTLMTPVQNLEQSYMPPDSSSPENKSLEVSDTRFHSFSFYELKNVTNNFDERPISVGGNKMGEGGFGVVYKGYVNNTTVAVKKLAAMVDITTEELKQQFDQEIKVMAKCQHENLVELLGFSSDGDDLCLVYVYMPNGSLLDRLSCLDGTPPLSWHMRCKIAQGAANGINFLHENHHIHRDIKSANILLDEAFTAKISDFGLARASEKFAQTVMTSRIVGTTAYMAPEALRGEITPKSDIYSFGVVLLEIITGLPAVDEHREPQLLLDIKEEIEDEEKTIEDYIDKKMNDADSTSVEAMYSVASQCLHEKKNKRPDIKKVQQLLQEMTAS

`COC(=O)NC(C)(CCNC(=O)c1cnc(-c2ccc3cc(C#N)cnn23)cc1NC(C)C)C(F)F` (centres unmarked) [Example 553, methyl (4-(6-(3-cyano-pyrrolo[1,2-b]pyridazin-7-yl)-4-(isopropylamino)nicotinamido)-1,1-difluoro-2-methylbutan-2-yl)carbamate] showed an EC50 (TNFα) of 183 nM and an IC50 (IRAK4 enzyme) of 2 nM.
Work on `CC(C)Nc1cc(-c2ccc3cc(C#N)cnn23)ncc1C(=O)NCC(F)(F)CNC(=O)OC(C)(C)C` [Example 554, tert-butyl (3-(6-(3-cyano-pyrrolo[1,2-b]pyridazin-7-yl)-4-(isopropylamino)nicotinamido)-2,2-difluoropropyl)carbamate] yielded an EC50 (TNFα) of 439 nM and an IC50 (IRAK4 enzyme) of 35 nM.
For `CC(C)Nc1cc(-c2ccc3cc(C#N)cnn23)ncc1C(=O)NCCC(C)(N)C(F)F` (centres unmarked) [Example 555, N-(3-amino-4,4-difluoro-3-methylbutyl)-6-(3-cyano-pyrrolo[1,2-b]pyridazin-7-yl)-4-(isopropylamino) nicotinamide], the EC50 (TNFα) was 95 nM and the IC50 (IRAK4 enzyme) was 1 nM.
Work on `COC(=O)NC[C@H]1CC[C@H](Nc2cc(-c3ccc4cc(C#N)cnn34)ncc2C(=O)NC[C@@H](F)C(C)(C)O)CC1` [Example 556, methyl (((1R,4r)-4-((2-(3-cyanopyrrolo[1,2-b]pyridazin-7-yl)-5-(((R)-2-fluoro-3-hydroxy-3-methylbutyl)carbamoyl)pyridin-4-yl)amino)cyclo-hexyl)methyl)carbamate] yielded an EC50 (TNFα) of 18 nM and an IC50 (IRAK4 enzyme) of 1 nM.
`CC(=O)NC[C@H]1CC[C@H](Nc2cc(-c3ccc4cc(C#N)cnn34)ncc2C(=O)NC[C@@H](F)C(C)(C)O)CC1` [Example 557, 4-(((1r,4R)-4-(acetamidomethyl)cyclo-hexyl)amino)-6-(3-cyano-pyrrolo[1,2-b]pyridazin-7-yl)-N-((R)-2-fluoro-3-hydroxy-3-methylbutyl) nicotinamide] was tested, and the EC50 (TNFα) was 27 nM and the IC50 (IRAK4 enzyme) was less than 1 nM.
In the case of `CC(C)(O)[C@H](F)CNC(=O)c1cnc(-c2ccc3cc(C#N)cnn23)cc1N[C@H]1CC[C@H](CN)CC1` [Example 558, 4-(((1r,4R)-4-(amino-methyl)cyclohexyl)amino)-6-(3-cyano-pyrrolo[1,2-b]pyridazin-7-yl)-N-((R)-2-fluoro-3-hydroxy-3-methylbutyl) nicotinamide], the EC50 (TNFα) is reported as 190 nM and the IC50 (IRAK4 enzyme) is reported as less than 1 nM.
In the case of `CC(N)(CCNc1cc(-c2ccc3cc(C#N)cnn23)ncc1C(=O)NC[C@@H](F)C(C)(C)O)C(F)F` (stereo partly drawn) [Example 559, 4-((3-amino-4,4-difluoro-3-methylbutyl)amino)-6-(3-cyanopyrrolo[1,2-b]pyridazin-7-yl)-N-((R)-2-fluoro-3-hydroxy-3-methylbutyl)nicotinamide], the EC50 (TNFα) is reported as 78 nM and the IC50 (IRAK4 enzyme) is reported as 1 nM.
`CC(C)(O)[C@H](F)CNC(=O)c1cnc(-c2ccc3cc(C#N)cnn23)cc1NC[C@@H](F)C(C)(C)O` [Example 560, 6-(3-cyanopyrrolo[1,2-b]pyridazin-7-yl)-N-((R)-2-fluoro-3-hydroxy-3-methylbutyl)-4-(((R)-2-fluoro-3-hydroxy-3-methylbutyl)amino) nicotinamide] was tested, and the EC50 (TNFα) was 83 nM and the IC50 (IRAK4 enzyme) was less than 1 nM.
For `CC(C)Nc1cc(-c2ccc3cc(C#N)cnn23)ncc1C(=O)NCCC(C)(N)C(F)(F)F` (centres unmarked) [Example 561, N-(3-amino-4,4,4-trifluoro-3-methylbutyl)-6-(3-cyano-pyrrolo[1,2-b]pyridazin-7-yl)-4-(isopropylamino) nicotinamide], the EC50 (TNFα) was 121 nM and the IC50 (IRAK4 enzyme) was 1 nM.
`CC(C)(O)[C@H](F)CNC(=O)c1cnc(-c2ccc3cc(C#N)cnn23)cc1NCCC(C)(N)C(F)(F)F` (stereo partly drawn) [Example 562, 4-((3-amino-4,4,4-trifluoro-3-methylbutyl)amino)-6-(3-cyanopyrrolo[1,2-b]pyridazin-7-yl)-N-((R)-2-fluoro-3-hydroxy-3-methylbutyl)nicotinamide] was tested, and the EC50 (TNFα) was 75 nM and the IC50 (IRAK4 enzyme) was 1 nM.
For `Cc1cn2ccc(Nc3cc(-c4ccc5cc(C#N)cnn45)ncc3C(=O)NC[C@@H](F)C(C)(C)O)cc2n1` [Example 563, (R)-6-(3-cyanopyrrolo[1,2-b]pyridazin-7-yl)-N-(2-fluoro-3-hydroxy-3-methylbutyl)-4-((2-methyl-imidazo[1,2-a]pyridin-7-yl)amino)nicotinamide], the EC50 (TNFα) was 114 nM and the IC50 (IRAK4 enzyme) was 2 nM.
`COC(=O)c1ccc(Nc2cc(-c3ccc4cc(C#N)cnn34)ncc2C(=O)NC[C@@H](F)C(C)(C)O)cc1OC` [Example 564, (R)-methyl 4-((2-(3-cyano-pyrrolo[1,2-b]pyridazin-7-yl)-5-((2-fluoro-3-hydroxy-3-methylbutyl)carbamoyl)pyridin-4-yl)amino)-2-methoxybenzoate] showed an EC50 (TNFα) of 315 nM and an IC50 (IRAK4 enzyme) of 23 nM.
`CC1(C)C(=O)Nc2cc(Nc3cc(-c4ccc5cc(C#N)cnn45)ncc3C(=O)NC[C@@H](F)C(C)(C)O)ccc21` [Example 565, (R)-6-(3-cyanopyrrolo[1,2-b]pyridazin-7-yl)-4-((3,3-dimethyl-2-oxoindolin-6-yl)amino)-N-(2-fluoro-3-hydroxy-3-methylbutyl) nicotinamide] showed an EC50 (TNFα) of 23 nM and an IC50 (IRAK4 enzyme) of less than 1 nM.
`CC(C)(O)[C@H](F)CNC(=O)c1cnc(-c2ccc3cc(C#N)cnn23)cc1Nc1cnc2cc[nH]c2c1` [Example 566, (R)-4-((1H-pyrrolo[3,2-b]pyridin-6-yl)amino)-6-(3-cyanopyrrolo[1,2-b]pyridazin-7-yl)-N-(2-fluoro-3-hydroxy-3-methyl-butyl)nicotinamide] was tested, and the EC50 (TNFα) was 27 nM and the IC50 (IRAK4 enzyme) was less than 1 nM.
In the case of `CC(C)(O)[C@H](F)CNC(=O)c1cnc(-c2ccc3cc(C#N)cnn23)cc1Nc1ccc(OC2COC2)cc1` [Example 567, (R)-6-(3-cyanopyrrolo[1,2-b]pyridazin-7-yl)-N-(2-fluoro-3-hydroxy-3-methylbutyl)-4-((4-(oxetan-3-yloxy)phenyl)amino)nicotinamide], the EC50 (TNFα) is reported as 50 nM and the IC50 (IRAK4 enzyme) is reported as less than 1 nM.
Molecule `CC(C)(O)[C@H](F)CNC(=O)c1cnc(-c2ccc3cc(C#N)cnn23)cc1Nc1ccc2oc(=O)[nH]c2c1` [Example 568, (R)-6-(3-cyanopyrrolo[1,2-b]pyridazin-7-yl)-N-(2-fluoro-3-hydroxy-3-methylbutyl)-4-((2-oxo-2,3-dihydrobenzo[d]oxazol-5-yl)amino)nicotinamide] has an EC50 (TNFα) of 214 nM and an IC50 (IRAK4 enzyme) of less than 1 nM.
`CC(C)(O)[C@H](F)CNC(=O)c1cnc(-c2ccc3cc(C#N)cnn23)cc1Nc1ccn2ccnc2c1` [Example 570, (R)-6-(3-cyanopyrrolo[1,2-b]pyridazin-7-yl)-N-(2-fluoro-3-hydroxy-3-methyl-butyl)-4-(imidazo[1,2-a]pyridin-7-ylamino) nicotinamide] was tested, and the EC50 (TNFα) was 80 nM and the IC50 (IRAK4 enzyme) was less than 1 nM.
In the case of `CC(C)(O)[C@H](F)CNC(=O)c1cnc(-c2ccc3cc(C#N)cnn23)cc1Nc1ccc2c(C#N)c[nH]c2c1` [Example 571, (R)-4-((3-cyano-1H-indol-6-yl)amino)-6-(3-cyano-pyrrolo[1,2-b]pyridazin-7-yl)-N-(2-fluoro-3-hydroxy-3-methylbutyl)nicotinamide], the EC50 (TNFα) is reported as 12 nM and the IC50 (IRAK4 enzyme) is reported as less than 1 nM.
Molecule `CC(C)(O)[C@H](F)CNC(=O)c1cnc(-c2ccc3cc(C#N)cnn23)cc1Nc1ccc2ncsc2c1` [Example 572, (R)-4-(benzo[d]thiazol-6-ylamino)-6-(3-cyano-pyrrolo[1,2-b]pyridazin-7-yl)-N-(2-fluoro-3-hydroxy-3-methylbutyl)nicotinamide] has an EC50 (TNFα) of 66 nM and an IC50 (IRAK4 enzyme) of less than 1 nM.
